Assay results: BindingDB's records for PubMed 1738111 (University of Texas, 1992)

Target: 5-hydroxytryptamine receptor 1B (Rattus norvegicus, UniProt P28564)
Sequence (P28564 whole entry): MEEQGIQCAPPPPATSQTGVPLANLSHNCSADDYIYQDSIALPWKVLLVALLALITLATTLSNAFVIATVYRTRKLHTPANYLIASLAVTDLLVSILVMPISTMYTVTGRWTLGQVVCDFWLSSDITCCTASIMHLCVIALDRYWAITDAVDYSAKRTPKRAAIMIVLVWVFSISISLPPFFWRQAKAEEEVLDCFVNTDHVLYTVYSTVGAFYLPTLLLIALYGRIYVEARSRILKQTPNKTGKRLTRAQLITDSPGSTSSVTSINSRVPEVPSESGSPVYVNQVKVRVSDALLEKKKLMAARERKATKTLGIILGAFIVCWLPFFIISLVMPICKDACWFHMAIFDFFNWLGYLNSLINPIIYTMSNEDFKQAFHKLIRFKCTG

`CN1C2CCC1CC(OC(=O)c1c[nH]c3ccccc13)C2` (stereo unspecified) and `CN1C2CCC1CC(OC(=O)c1cc(Cl)cc(Cl)c1)C2` (stereo unspecified) [MDL 72222] cannot be ordered by Ki: over 10 µM for the first, over 10 µM for the second.

Going from `CC[C@@H](CO)NC(=O)[C@@H]1C=C2c3cccc4c3c(cn4C)C[C@H]2N(C)C1` to `CN1C[C@@H](NS(=O)(=O)N(C)C)C[C@@H]2c3cccc4c3c(cn4C)C[C@H]21` [MESULERGINE], the Ki rises from 0.386 µM to over 10 µM. The first binds more tightly here.

First: Clc1cccc(Cl)c1N=C1NCCN1 [2-(2,6-dichloroanilino)-2-imidazoline]
Second: Clc1cccc(N2CCNCC2)c1 [mCPP]
The Ki of the first is higher: over 10 µM for the first, 0.096 µM for the second. The second binds more tightly here.

First: c1ccc2nc(N3CCNCC3)ccc2c1 [2-Piperazin-1-yl-quinoline (Quipazine)]
Second: FC(F)(F)c1cccc(N2CCNCC2)c1 [TFMPP]
The Ki of the first is 3-fold higher: 0.249 µM for the first, 0.084 µM for the second.

`O=C(c1ccc(F)cc1)C1CCN(CCn2c(=O)[nH]c3ccccc3c2=O)CC1` [3-(2-{4-[(4-fluorophenyl)carbonyl]piperidin-1-yl}ethyl)-1,2,3,4-tetrahydroquinazoline-2,4-dione] and `O=C(CCCN1CCC2(CC1)C(=O)NCN2c1ccccc1)c1ccc(F)cc1` [8-[4-(4-fluorophenyl)-4-oxidanylidene-butyl]-1-phenyl-1,3,8-triazaspiro[4.5]decan-4-one] cannot be ordered by Ki: over 10 µM for the first, over 10 µM for the second.

Going from `CN1CCN(c2nc3cc(C(F)(F)F)ccc3n3cccc23)CC1` [CAS_109028-10-6] to `CSc1ccc2c(c1)C(N1CCN(C)CC1)Cc1ccccc1S2` (stereo unspecified) [methanesulfonic acid;1-methyl-4-(3-methylsulfanyl-5,6-dihydrobenzo[b][1]benzothiepin-5-yl)piperazine], the Ki rises from 0.032 µM to 0.095 µM (3-fold).

First: NCC(O)c1ccc(O)c(O)c1 (stereo not drawn) [Noradrenaline,(+)]
Second: NCCc1c[nH]c2ccc(C(N)=O)cc12 [[3H]-5-carboxamidotryptamine]
The Ki of the first is higher: over 10 µM for the first, 0.004 µM for the second.

Compared with `Cc1ccc(N(CC2=NCCN2)c2cccc(O)c2)cc1` [SMR000059054], `COc1cc2nc(N3CCN(C(=O)c4ccco4)CC3)nc(N)c2cc1OC` [[3H]-Minipress] is 3-fold lower in Ki: 0.87 µM for the first, 0.29 µM for the second. The second binds more tightly here.
